{"source": "the supplement of paper PMC10307832", "data": [{"compound": "C1=CC2=C(C=C(C(=C2N=C1)O)N=NC3=CC4=C(C=C3)C=C(C=C4)S(=O)(=O)O)S(=O)(=O)O + Cc1nc(Nc2ncc(C(=O)Nc3c(C)cccc3Cl)s2)cc(N2CCN(CCO)CC2)n1 [Dasatinib] (partner 0.075 µM)", "test": "relative viability (nuclei count vs DMSO), 5 days (fraction); higher = more cells survive", "conditions": "first compound 8 µM", "how_it_was_run": "(§1)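 Nuclei were stained with Hoechst during a one-step fixation (final 0.05% Triton X-100, 1% formaldehyde, 1 ug/ml Hoechst) carried out 5 days after dosing, then counted on 4× images. The cells, lung cancer lines in 1536-well plates, had been dosed by pin tool the day after seeding with one drug alone or a fixed anchor-drug dose plus five library-drug doses (not always all listed) in √10 steps. Relative viability is the nuclei count in treated wells divided by that in vehicle wells, and each value is the median of duplicate plates.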", "values": [{"cell line": "NCI-H520", "relative viability": 0.176}, {"cell line": "NCI-H2126", "relative viability": 0.693}, {"cell line": "EMC-BAC-2", "relative viability": 0.367}, {"cell line": "NCI-H2085", "relative viability": 0.291}, {"cell line": "HCC-366", "relative viability": 0.637}, {"cell line": "NCI-H1666", "relative viability": 0.741}, {"cell line": "NCI-H596", "relative viability": 0.703}, {"cell line": "LK-2", "relative viability": 0.239}, {"cell line": "NCI-H2087", "relative viability": 0.884}, {"cell line": "SK-MES-1", "relative viability": 0.477}, {"cell line": "H3255", "relative viability": 0.477}, {"cell line": "COR-L23", "relative viability": 0.576}, {"cell line": "COR-L 105", "relative viability": 0.278}, {"cell line": "LOU-NH91", "relative viability": 0.508}, {"cell line": "ChaGo-K-1", "relative viability": 0.335}, {"cell line": "NCI-H2170", "relative viability": 0.55}, {"cell line": "NCI-H2405", "relative viability": 0.219}, {"cell line": "HOP-62", "relative viability": 0.653}, {"cell line": "NCI-H522", "relative viability": 1.03}, {"cell line": "LU99A", "relative viability": 0.514}, {"cell line": "BEN", "relative viability": 0.322}, {"cell line": "HARA", "relative viability": 0.327}, {"cell line": "SW 900", "relative viability": 0.743}, {"cell line": "HCC-78", "relative viability": 0.394}, {"cell line": "NCI-H1792", "relative viability": 0.835}, {"cell line": "NCI-H1563", "relative viability": 0.418}]}, {"compound": "O=C(NC1CCNCC1)c1n[nH]cc1NC(=O)c1c(Cl)cccc1Cl [AT-7519] + Cc1cc(Nc2cc(N3CCN(C)CC3)nc(Sc3ccc(NC(=O)C4CC4)cc3)n2)n[nH]1 [Tozasertib] (partner 0.1 µM)", "test": "relative viability (nuclei count vs DMSO), 5 days (fraction); higher = more cells survive", "conditions": "first compound 0.01 µM", "how_it_was_run": "as §1", "values": [{"cell line": "NCI-H2342", "relative viability": 0.483}, {"cell line": "NCI-H1623", "relative viability": 0.378}, {"cell line": "NCI-H727", "relative viability": 0.574}, {"cell line": "NCI-H1650", "relative viability": 0.532}, {"cell line": "NCI-H1993", "relative viability": 0.547}, {"cell line": "SW 1573", "relative viability": 0.151}, {"cell line": "NCI-H838", "relative viability": 0.315}, {"cell line": "LCLC-103H", "relative viability": 0.489}, {"cell line": "NCI-H520", "relative viability": 0.438}, {"cell line": "NCI-H2126", "relative viability": 0.946}, {"cell line": "EMC-BAC-2", "relative viability": 0.339}, {"cell line": "NCI-H2085", "relative viability": 0.768}, {"cell line": "HCC-366", "relative viability": 0.0905}, {"cell line": "NCI-H1666", "relative viability": 0.539}, {"cell line": "NCI-H596", "relative viability": 0.78}, {"cell line": "LK-2", "relative viability": 0.18}, {"cell line": "NCI-H2087", "relative viability": 0.255}, {"cell line": "NCI-H1648", "relative viability": 0.37}, {"cell line": "SK-MES-1", "relative viability": 0.928}, {"cell line": "H3255", "relative viability": 0.998}, {"cell line": "COR-L23", "relative viability": 0.177}, {"cell line": "COR-L 105", "relative viability": 0.327}, {"cell line": "LOU-NH91", "relative viability": 0.722}, {"cell line": "ChaGo-K-1", "relative viability": 0.224}, {"cell line": "NCI-H2170", "relative viability": 0.672}, {"cell line": "NCI-H2405", "relative viability": 0.819}, {"cell line": "HOP-62", "relative viability": 0.344}, {"cell line": "HCC-44", "relative viability": 1.14}, {"cell line": "LU99A", "relative viability": 0.26}, {"cell line": "BEN", "relative viability": 0.391}, {"cell line": "HARA", "relative viability": 0.129}, {"cell line": "SW 900", "relative viability": 0.613}, {"cell line": "HCC-78", "relative viability": 0.631}]}, {"compound": "O=C(NC1CCNCC1)c1n[nH]cc1NC(=O)c1c(Cl)cccc1Cl [AT-7519] + Cc1cc(Nc2cc(N3CCN(C)CC3)nc(Sc3ccc(NC(=O)C4CC4)cc3)n2)n[nH]1 [Tozasertib] (partner 0.1 µM)", "test": "relative viability (nuclei count vs DMSO), 5 days (fraction); higher = more cells survive", "conditions": "first compound 0.03162 µM", "how_it_was_run": "as §1", "values": [{"cell line": "NCI-H2342", "relative viability": 0.52}, {"cell line": "NCI-H1623", "relative viability": 0.401}, {"cell line": "NCI-H727", "relative viability": 0.551}, {"cell line": "NCI-H1650", "relative viability": 0.436}, {"cell line": "NCI-H1993", "relative viability": 0.584}, {"cell line": "SW 1573", "relative viability": 0.151}, {"cell line": "NCI-H838", "relative viability": 0.277}, {"cell line": "LCLC-103H", "relative viability": 0.408}, {"cell line": "NCI-H520", "relative viability": 0.453}, {"cell line": "NCI-H2126", "relative viability": 0.865}, {"cell line": "EMC-BAC-2", "relative viability": 0.286}, {"cell line": "NCI-H2085", "relative viability": 0.853}, {"cell line": "HCC-366", "relative viability": 0.186}, {"cell line": "NCI-H1666", "relative viability": 0.571}, {"cell line": "NCI-H596", "relative viability": 0.811}, {"cell line": "LK-2", "relative viability": 0.165}, {"cell line": "NCI-H2087", "relative viability": 0.269}, {"cell line": "SK-MES-1", "relative viability": 1}, {"cell line": "H3255", "relative viability": 0.506}, {"cell line": "COR-L23", "relative viability": 0.189}]}]}
